Measured values taken from ChEMBL document CHEMBL5620362 (Eur J Med Chem, 2023).
Calls of active or inactive are those of the source. The calls are words filed in the database; no cut-off is given here.

Legend:
HPAF-II [1] = test: Induction of apoptosis in human HPAF-II cells assessed as early apoptotic cells at 1 uM incubated for 48 hrs by Annexin V-FITC/PI staining based flow cytometry (reference value: 0.90 %); format: functional
NCI-H23 [2] = test: Induction of apoptosis in human NCI-H23 cells assessed as early apoptotic cells at 10 uM incubated for 48 hrs by Annexin V-FITC/PI staining based flow cytometry (reference value: 4.17 %); format: functional
NCI-H23 [3] = test: Induction of apoptosis in human NCI-H23 cells assessed as late apoptotic cells at 10 uM incubated for 48 hrs by Annexin V-FITC/PI staining based flow cytometry (reference value: 2.89 %); format: functional
NCI-H23 [4] = test: Induction of apoptosis in human NCI-H23 cells assessed as viable cells at 0.1 uM incubated for 48 hrs by Annexin V-FITC/PI staining based flow cytometry (reference value: 92.16 %); format: functional; details: read-out: Activity
MV4-11 = test: Anticancer activity against human MV4-11 cells incubated for 72 hrs; format: functional, cell-based
HPAF-II [5] = test: Induction of apoptosis in human HPAF-II cells assessed as increase in cleaved PARP level at 0.1 to 1 uM incubated for 48 hrs by Western blot analysis; format: functional, cell-based; details: dose 0.1-1 µM
HPAF-II [6] = test: Downregulation of phosphorylated AKT expression in human HPAF-II cells at 0.1 to 1 uM incubated for 48 hrs by Western blot analysis; format: functional, cell-based; details: dose 0.1-1 µM
HPAF-II [7] = test: Downregulation of ERK phosphorylation level in human HPAF-II cells harboring siROR-gamma at 0.1 uM by Western blot analysis; format: functional, cell-based
[8] = Half life in ICR mouse at 3 mg/kg, iv; format: ADME, organism-based; details: in vivo
[9] = AUC (infinity) in ICR mouse at 3 mg/kg, iv; format: ADME, organism-based; details: in vivo
[10] = Toxicity in nude Balb/cA mouse xenografted with human HPAF-II cells assessed as redness at injection site at 15 mg/kg, ip qd measured for 12 days; format: organism-based; details: in vivo, 288 h, time 12 day

`C=C(C)[C@@H]1CC[C@]2(C(=O)NCCCN(C)C)CC[C@]3(C)[C@H](CC[C@@H]4[C@@]5(C)CC[C@H](O)C(C)(C)[C@@H]5CC[C@]43C)[C@@H]12` showed an Activity (HPAF-II [1]) of 39.49%, an Activity (NCI-H23 [2]) of 64.02% and an Activity (NCI-H23 [3]) of 28.83%. The viability at 0.1 µM (NCI-H23 [4]) was 79.5%, the Activity (MV4-11) was “Active” and the Activity (HPAF-II [5]) was “Active”. The Activity (HPAF-II [6]) was “Active”, the Activity (HPAF-II [7]) was “Active” and the half-life [8] was 4.5 h. The AUC(0-inf) [9] was 3050 ng·h/mL and the Activity [10] was “Toxic”.
